Experimental data from patent US20220389013A1, “PYRIDOPYRIMIDINONE COMPOUNDS AND APPLICATIONS THEREOF” (BeBetter Med Inc., priority 2020, published 2022).
Counter-ions that a name gives are not always drawn.

Legend:
H358 (KRAS G12C) = test: Tumor cell proliferation inhibition assay (CellTiter-Glo), H358; format: cell-based, Human; details: 10% fetal bovine serum
Method in brief: (§1)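 Growth was read as ATP by CellTiter-Glo luminescence, with inhibition normalised to DMSO (max) and medium-only (min) wells. IC50 came from sigmoidal dose-response fits.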

[1] = Pharmacokinetic (PK) experiment in rats by gavage; format: in vivo; details: rat, plasma, po, male SD rats, 20 mg/kg; for AUC(0-t): read-out: AUC0-24
[2] = Caco-2 cell transmembrane transport experiment; details: human; for efflux ratio at 90 min, 10 μM: Caco-2, pH 7.4; for Papp B→A at 90 min, 10 μM: basolateral to apical
Description: (§2) In this experiment, a monolayer of Caco-2 cells was used to assess drug penetration. […] The apparent permeability coefficient from apical to basolateral (Papp A-B) and the basolateral to apical permeability coefficient (Papp B-A) of compounds represent the ability of the compound to be transported in both directions, respectively.
(§3) Apparent permeability coefficient (Papp)=(the volume of the receiver chamber/the filter surface area×culture time))×(the drug concentration of receiver chamber at the end of culture/(the drug concentration of donor chamber at the initial culture×dilution factor)
(§4) In this experiment, Millipore cell culture plates (PSHT 010 R5): membrane area=0.7 cm^2, recipient side volume=0.8 mL (A-to-B) or 0.4 mL (B-to-A), incubation time=90 minutes.

KRAS-G12C/SOS1 = molecular target: T1, KRAS-G12C/SOS1 (Homo sapiens, UniProt P01116, G12C); test: HTRF KRAS-G12C/SOS1 binding assay; details: 2 hours room temperature
T1 construct: purchased Cisbio #63ADK000CB16PEG
T1 sequence (P01116 1-188 isoform P01116-2 G12C): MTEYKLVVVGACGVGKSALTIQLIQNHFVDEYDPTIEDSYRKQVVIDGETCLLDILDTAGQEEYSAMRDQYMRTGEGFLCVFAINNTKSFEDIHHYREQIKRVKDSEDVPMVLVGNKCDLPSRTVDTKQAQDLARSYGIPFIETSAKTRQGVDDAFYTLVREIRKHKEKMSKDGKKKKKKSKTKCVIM
Method: 2) Diluted the compound to be tested with diluent into 10× stock solution, starting from a concentration of 10000 nM, diluting in 4-fold gradient and a total of 6 concentration gradients.
After incubated at room temperature for 15 minutes, added pre-mixed 5 uL of anti-Tag1-Tb^3+ and 5 uL of anti-Tag2-XL665. Sealed the plate and incubated at room temperature for 2 hours.
Data were processed by using Graphpad prism software.

MIA-Paca2 (KRAS G12C) = test: Tumor cell proliferation inhibition assay (CellTiter-Glo), MIA-Paca2; format: cell-based, Human; details: 10% fetal bovine serum
Method in brief: as §1

H23 (KRAS G12C) = test: Tumor cell proliferation inhibition assay (CellTiter-Glo), H23; format: cell-based, Human; details: 10% fetal bovine serum
Method: The H358, H23 or MIA-Paca2 cells were digested, centrifuged and resuspended, and the cell density was measured with a Scepter automatic cell counter. Cells were diluted to a solution containing 44,000 cells per milliliter, then added to a 96-well culture plate at 90 μL per well. The 96-well plate was placed in a 5% CO2 incubator at 37° C., and after the cells were cultured for 24 hours, different concentrations of the compounds to be tested were added. Cells were incubated with compounds in the presence of 10% fetal bovine serum for 72 hours. The inhibition of cell growth was assessed by measuring ATP levels by using the CellTiter-Glo Luminescent Cell Viability Assay Kit (details in manufacturer's instructions). In brief, 30 μL of CellTiter-Glo reagent was added to each well and the plate was shaken for 10 minutes to induce cell lysis, then the fluorescent signal was detected and recorded with a Fluoroskan Ascent FL (Thermo). Maximum signal values were obtained from cells treated with DMSO for 72 hours. Minimum signal values were obtained with medium only (zero cell number). Inhibition rate %=(maximum signal value-compound signal value)/(maximum signal value-minimum signal value)×100%. Data were processed by using Graphpad prism5 software. IC50 values were calculated using a sigmoidal dose-response curve.

in vitro = details: human; for efflux ratio at 90 min, 10 μM: Caco-2, pH 7.4
Description: as §2, §3, §4

[3] = Caco-2, pH 7.4, Papp A-B Sample_01, 10 μM, pH 7.4, 37° C., 90 min, apical to basolateral
[4] = Caco-2, pH 7.4, Papp A-B Sample_02, 10 μM, pH 7.4, 37° C., 90 min, apical to basolateral
[5] = Caco-2, pH 7.4, Papp A-B mean value, 10 μM, pH 7.4, 37° C., 90 min, apical to basolateral
[6] = Caco-2, pH 7.4, Papp B-A Sample_01, 10 μM, pH 7.4, 37° C., 90 min
[7] = Caco-2, pH 7.4, Papp B-A Sample_02, 10 μM, pH 7.4, 37° C., 90 min
[8] = Caco-2, pH 7.4, Papp B-A mean value, 10 μM, pH 7.4, 37° C., 90 min
[9] = Caco-2, pH 7.4, apparent permeability coefficient Papp A-B, Caco-2
[10] = Caco-2, pH 7.4, Papp A-B Sample_01
[11] = Caco-2, pH 7.4, Papp A-B Sample_02
[12] = Caco-2, pH 7.4, Papp A-B mean value
[13] = Caco-2, pH 7.4, Papp B-A Sample_01
[14] = Caco-2, pH 7.4, Papp B-A Sample_02
[15] = Caco-2, pH 7.4, Papp B-A mean value

SMILES	IC50 (H358 (KRAS G12C); Homo sapiens, NCI-H358, 72 h) [nM]	AUC(0-inf) [1] [ng·h/mL]	Cmax [1] [ng/mL]	Tmax [1] [h]	half-life [1] [h]	AUC(0-t) [1] [ng·h/mL]	IC50 (KRAS-G12C/SOS1) [nM]	IC50 (MIA-Paca2 (KRAS G12C); Homo sapiens, MIA PaCa-2, 72 h) [nM]	IC50 (H23 (KRAS G12C); Homo sapiens, 72 h) [nM]	also measured
C=CC(=O)N1CCN(c2nc(=O)n(-c3c(C)ccnc3C(C)C)c3nc(-c4c(F)c(F)cc5ccoc45)c(Cl)cc23)[C@@H](C)C1 (single isomer, unassigned) [Compound 103-1]	< 10	6240	2700	1	6.03	6190	< 50	< 10	< 10	efflux ratio at 90 min, 10 μM [2]: 2.08; Papp A→B at 90 min, 10 μM [2, 3]: 12.1 ×10⁻⁶ cm/s; Papp A→B at 90 min, 10 μM [2, 4]: 10.7 ×10⁻⁶ cm/s; Papp A→B at 90 min, 10 μM [2, 5]: 11.4 ×10⁻⁶ cm/s; Papp B→A at 90 min, 10 μM [2, 6]: 19.7 ×10⁻⁶ cm/s; Papp B→A at 90 min, 10 μM [2, 7]: 27.8 ×10⁻⁶ cm/s; Papp B→A at 90 min, 10 μM [2, 8]: 23.7 ×10⁻⁶ cm/s; Papp A→B at 90 min, 10 μM [2, 9]: > 10 ×10⁻⁶ cm/s
C=CC(=O)N1CCN(c2nc(=O)n(-c3c(C)ccnc3C(C)C)c3nc(-c4c(F)ccc5ccoc45)c(F)cc23)[C@@H](C)C1 (single isomer, unassigned) [Compound 70-1]	–	7910	3530	1	2.77	7890	50 to 100	–	–	IC50 (H358 (KRAS G12C); 72 hours): 10 to 50 nM; efflux ratio at 90 min, 10 μM [2]: 1.19; Papp A→B at 90 min, 10 μM [2, 3]: 19 ×10⁻⁶ cm/s; Papp A→B at 90 min, 10 μM [2, 4]: 18.8 ×10⁻⁶ cm/s; Papp A→B at 90 min, 10 μM [2, 5]: 18.9 ×10⁻⁶ cm/s; Papp B→A at 90 min, 10 μM [2, 6]: 21.1 ×10⁻⁶ cm/s; Papp B→A at 90 min, 10 μM [2, 7]: 23.7 ×10⁻⁶ cm/s; Papp B→A at 90 min, 10 μM [2, 8]: 22.4 ×10⁻⁶ cm/s; Papp A→B at 90 min, 10 μM [2, 9]: > 10 ×10⁻⁶ cm/s; IC50 (MIA-Paca2 (KRAS G12C); 72 hours): 10 to 50 nM; IC50 (H23 (KRAS G12C); 72 hours): < 10 nM
C=CC(=O)N1CCN(c2nc(=O)n(-c3c(C)ccnc3C(C)C)c3nc(-c4c(F)c(F)cc5ccoc45)c(F)cc23)[C@@H](C)C1 (single isomer, unassigned) [Compound 74-1]	10 to 50	6220	3180	0.83	5.3	6200	50 to 100	10 to 50	< 10	–
C=CC(=O)N1C[C@H](C)N(c2nc(=O)n(-c3c(C)ccnc3C(C)C)c3nc(-c4c(F)c(F)cc5ccoc45)c(F)cc23)C[C@H]1C (single isomer, unassigned) [Compound 91-1]	10 to 50	9710	2970	1.17	2.72	9680	100 to 500	10 to 50	< 10	melting point: 156 to 158 °C
CC[C@H]1OC(=O)[C@H](C)[C@@H](O[C@H]2C[C@@](C)(OC)[C@@H](O)[C@H](C)O2)[C@H](C)[C@@H](O[C@@H]2O[C@H](C)C[C@H](N(C)C)[C@H]2O)[C@](C)(O)C[C@@H](C)C(=O)[C@H](C)[C@@H](O)[C@]1(C)O [Erythromycin]	–	–	–	–	–	–	–	–	–	efflux ratio at 90 min, 10 μM (in vitro): 30.6; Papp A→B at 90 min, 10 μM (in vitro; [10]): 0.46 ×10⁻⁶ cm/s; Papp A→B at 90 min, 10 μM (in vitro; [11]): 0.5 ×10⁻⁶ cm/s; Papp A→B at 90 min, 10 μM (in vitro; [12]): 0.48 ×10⁻⁶ cm/s; Papp B→A at 90 min, 10 μM (in vitro; [13]): 13.8 ×10⁻⁶ cm/s; Papp B→A at 90 min, 10 μM (in vitro; [14]): 15.5 ×10⁻⁶ cm/s; Papp B→A at 90 min, 10 μM (in vitro; [15]): 14.7 ×10⁻⁶ cm/s
C=CC(=O)N1C[C@H](C)N(c2nc(=O)n(-c3c(C)ccnc3C(C)C)c3nc(-c4c(F)ccc5ccoc45)c(F)cc23)C[C@H]1C (single isomer, unassigned) [Compound 89-1]	10 to 50	9020	3200	1	3.1	9010	50 to 100	10 to 50	–	melting point: 275 to 277 °C
C=CC(=O)N1CCN(c2nc(=O)n(-c3c(C)ccnc3C(C)C)c3nc(-c4c(F)ccc5ccoc45)c(Cl)cc23)[C@@H](C)C1 [Compound 73, 4-((S)-4-acryloyl-2-methylpiperazin-1-yl)-6-chloro-7-(6-fluorobenzofuran-7-yl)-1-(2-isopropyl-4-methylpyridin-3-yl)pyrido[2,3-d]pyrimidin-2(1H)-one]	< 10	8640	3360	1	3.97	8630	< 50	< 10	< 10	–
C=CC(=O)N1C[C@H](C)N(c2nc(=O)n(-c3c(C)ccnc3C(C)C)c3nc(-c4c(F)ccc5ccoc45)c(Cl)cc23)C[C@H]1C [Compound 90, 4-((2S,5R)-4-acryloyl-2,5-dimethylpiperazin-1-yl)-6-chloro-7-(6-fluorobenzofuran-7-yl)-1-(2-isopropyl-4-methylpyridin-3-yl)pyrido[2,3-d]pyrimidin-2(1H)-one]	–	20400	5610	1	5.54	20100	50 to 100	–	< 10	melting point: 167 to 169 °C; IC50 (H358 (KRAS G12C); 72 hours): < 10 nM; IC50 (MIA-Paca2 (KRAS G12C); 72 hours): 10 to 50 nM
C=CC(=O)N1CCN(c2nc(=O)n(-c3c(C)ccnc3C(C)C)c3nc(-c4c(F)ccc5ccoc45)c(Cl)cc23)[C@@H](C)C1 (single isomer, unassigned) [Compound 73-2]	–	–	–	–	–	–	100 to 500	–	–	IC50 (H358 (KRAS G12C); 72 hours): 10 to 50 nM; IC50 (MIA-Paca2 (KRAS G12C); 72 hours): 100 to 500 nM; IC50 (H23 (KRAS G12C); 72 hours): < 10 nM
C=CC(=O)N1CCN(c2nc(=O)n(-c3c(C)ccnc3C(C)C)c3nc(-c4c(F)ccc5c4OCO5)c(Cl)cc23)[C@@H](C)C1 [Compound 97, 4-((S)-4-acryloyl-2-methylpiperazin-1-yl)-6-chloro-7-(5-fluorobenzo[d][1,3]dioxol-4-yl)-1-(2-isopropyl-4-methylpyridin-3-yl)pyrido[2,3-d]pyrimidin-2(1H)-one]	< 10	10400	4660	1	5.98	10400	50 to 100	10 to 50	–	–
C=CC(=O)N1CCN(c2nc(=O)n(-c3c(C)ccnc3C(C)C)c3nc(-c4c(F)ccc5ccoc45)c(F)cc23)[C@@H](C)C1 (single isomer, unassigned) [Compound 70-2]	–	–	–	–	–	–	> 1000	–	–	IC50 (H358 (KRAS G12C); 72 hours): 100 to 500 nM; IC50 (MIA-Paca2 (KRAS G12C); 72 hours): > 500 nM; IC50 (H23 (KRAS G12C); 72 hours): 50 to 100 nM
C=CC(=O)N1CCN(c2nc(=O)n(-c3c(C(C)C)ccnc3C(C)C)c3nc(-c4c(F)ccc5ccoc45)c(Cl)cc23)[C@@H](C)C1 [Compound 122, 4-((S)-4-acryloyl-2-methylpiperazin-1-yl)-6-chloro-1-(2,4-diisopropylpyridin-3-yl)-7-(6-fluorobenzofuran-7-yl)pyrido[2,3-d]pyrimidin-2(1H)-one]	< 10	6000	1630	1.67	3.64	5990	< 50	< 10	–	melting point: 162 to 173 °C
C=CC(=O)N1C[C@H](C)N(c2nc(=O)n(-c3c(C)ccnc3C(C)C)c3nc(-c4c(F)c(F)cc5ccoc45)c(Cl)cc23)C[C@H]1C (single isomer, unassigned) [Compound 104-1]	< 10	10500	2590	1	4.35	10300	< 50	10 to 50	< 10	efflux ratio at 90 min, 10 μM [2]: 1.92; Papp A→B at 90 min, 10 μM [2, 3]: 11.2 ×10⁻⁶ cm/s; Papp A→B at 90 min, 10 μM [2, 4]: 10.4 ×10⁻⁶ cm/s; Papp A→B at 90 min, 10 μM [2, 5]: 10.8 ×10⁻⁶ cm/s; Papp B→A at 90 min, 10 μM [2, 6]: 22.1 ×10⁻⁶ cm/s; Papp B→A at 90 min, 10 μM [2, 7]: 19.5 ×10⁻⁶ cm/s; Papp B→A at 90 min, 10 μM [2, 8]: 20.8 ×10⁻⁶ cm/s; Papp A→B at 90 min, 10 μM [2, 9]: > 10 ×10⁻⁶ cm/s
COCCc1ccc(OCC(O)CNC(C)C)cc1 (centres unmarked) [Metoprolol Tartrate]	–	–	–	–	–	–	–	–	–	efflux ratio at 90 min, 10 μM (in vitro): 0.93; Papp A→B at 90 min, 10 μM (in vitro; [10]): 33.3 ×10⁻⁶ cm/s; Papp A→B at 90 min, 10 μM (in vitro; [11]): 36.4 ×10⁻⁶ cm/s; Papp A→B at 90 min, 10 μM (in vitro; [12]): 34.8 ×10⁻⁶ cm/s; Papp B→A at 90 min, 10 μM (in vitro; [13]): 29.4 ×10⁻⁶ cm/s; Papp B→A at 90 min, 10 μM (in vitro; [14]): 35.4 ×10⁻⁶ cm/s; Papp B→A at 90 min, 10 μM (in vitro; [15]): 32.4 ×10⁻⁶ cm/s
